Assay results: patent US20260263442A1, “METHOD FOR TREATING L-DOPA-INDUCED DYSKINESIA USING BEFIRADOL” (Neurolixis, Inc., priority 2023, published 2026)
Where “and” joins values, the source holds several entries; their conditions need not be identical. Equal entries are not always repeated. Where two headings read alike, the source gives them in different places.

Assays:
[1] = system: overall PD symptoms in PD patients with LID; assay type: in vivo, human
Text: The CGI-C is a clinician-oriented scale that assesses the total improvement in the patient's condition relative to the clinical global impression of severity (CGI-S) scale conducted at baseline. The CGI-C rates the patient's condition from 0 to 7, with a rating of 0 indicating “no assessment”, a rating of 1 indicating “very much better”, and a rating of 7 indicating “very much worse”.

[2] = system: quality of life in PD patients with LID; experiment: Parkinson's Disease Questionnaire (PDQ39), Phase 2a study; assay type: in vivo, human
Text: The PDQ39-item patient reported outcome of health status and quality of life and is the most frequently used disease-specific health status measure for PD. The questionnaire assesses how often people affected by PD experience difficulties across 8 dimensions of daily living. The standard PDQ39 assesses quality of life over the previous month. In this study the initial time period assessed at the Baseline Visit would be the previous month, with subsequent assessments for the intervening period since the last clinic visit (about 3 weeks). The 8 quality of life dimensions covered in the questionnaire are: • Mobility (10 items #1-10) • ADL (6 items #11-16) • Emotional Well Being (6 items #17-22) • Stigma (4 items #23-26) • Social Support (3 items #27-29) • Cognition (4 items #30-33) • Communications (3 items #34-36) • Bodily Discomfort (3 items #37-39) Individual items are rated by the patient on a scale of […]. Dimension scores are calculated on a scale of 0 to 100. The total score and individual dimension scores would be assessed for change from baseline.

[3] = system: sleepiness in PD patients with LID; experiment: Epworth Sleepiness Scale (ESS), Phase 2a study; assay type: in vivo, human
Text: The ESS is a self-administered questionnaire with 8 questions. Respondents are asked to rate, on a 4-point scale (0-3), their usual chances of dozing off or falling asleep while engaged in 8 different activities. The ESS score (the sum of 8 item scores, 0-3) can range from 0 to 24. Ratings are based on the previous month, or in the case of this study, the intervening period since the previous clinic visit (about 3 weeks).

[4] = both, human, in vivo
[5] = target: T1, 5-HT1A receptors (Homo sapiens, UniProt P08908); details: cited from earlier work
T1 sequence (P08908 1-422): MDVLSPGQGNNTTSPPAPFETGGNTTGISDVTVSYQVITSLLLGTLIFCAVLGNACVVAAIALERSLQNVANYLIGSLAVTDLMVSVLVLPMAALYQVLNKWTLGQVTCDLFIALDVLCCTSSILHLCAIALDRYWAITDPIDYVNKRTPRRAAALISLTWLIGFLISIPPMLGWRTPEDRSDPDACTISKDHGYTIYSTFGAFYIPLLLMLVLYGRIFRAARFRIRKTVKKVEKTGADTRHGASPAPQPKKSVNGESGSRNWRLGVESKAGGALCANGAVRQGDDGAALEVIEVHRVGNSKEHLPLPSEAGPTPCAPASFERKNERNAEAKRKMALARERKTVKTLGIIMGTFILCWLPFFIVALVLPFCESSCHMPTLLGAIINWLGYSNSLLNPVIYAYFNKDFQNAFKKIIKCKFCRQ

[6] = system: MPTP-treated marmosets; details: cited from earlier work
[7] = system: models of pain, forced swim test, spinal cord injury model; details: animal experiments; cited from earlier work
[8] = system: Parkinson's disease symptoms in PD patients with LID; experiment: Unified Parkinson's Disease Rating Scale (UPDRS), Phase 2a study; details: for UPDRS Part 3, Baseline / UPDRS Part 3, Δ / UPDRS Total, Baseline / UPDRS Total, Δ: on NLX-112
Description: Because the level of dyskinesia experienced by patients can vary over time, they were given 150% (i.e., 1.5×) of their regular L-DOPA dose (up to a maximum of 250 mg) as a challenge 30 min before each dyskinesia assessment to improve comparability between patients and between visits. […] PD symptoms were assessed by Unified Parkinson's Disease Rating Scale (UPDRS) 30-90 min after the 150% L-DOPA challenge (i.e., when the patient was ON). Changes from baseline are shown for total score (i.e., Parts 1 to 4) and individual scores for each Part, 1, 2, 3 and 4.
Patients were challenged with 150% of their standard L-DOPA dose (maximum L-DOPA dose 250 mg) 30 minutes prior to the first UDysRS assessment. • Change from baseline in UDysRS total score at Day 28 and Day 42, after a 150% L-DOPA dose challenge. • Change from baseline in total objective score (Parts III, IV) of the UDysRS at Day 28 and Day 42, after a 150% L-DOPA dose challenge. • Change from baseline in ON Time Without Troublesome Dyskinesia (ON Without Dyskinesia plus ON With Non-troublesome Dyskinesia) based on a PD Home Dyskinesia Diary. • Change from baseline in Unified Parkinson's Disease Rating Scale (UPDRS) scores (Part III, motor examination). • Change from baseline in UPDRS combined scores (Parts I, II, III and IV). • Clinical Global Impression of Change (CGI-C) in overall PD symptoms • Change from baseline in dyskinesia scores measured by the Kinesia 360 (Great Lakes Neurotechnologies, Inc) wearable dyskinesia assessment system.
The UPDRS consists of 4 parts: • Part I assesses non-motor experiences of daily living, such as cognitive impairment and depressed mood. • Part II assesses motor experiences of daily living, such as speech and eating tasks. • Part III is a motor examination conducted by the clinician, including assessments of symptoms such as rigidity and tremor. • Part IV is an assessment of motor complications, such as time spent with dyskinesia and functional impact of dyskinesias.
Each item in the UPDRS is scored from 0 to 4, and the individual scores are summed to give a total score that indicates the severity of the disease, with a score of 0 indicating no disability and a score of 199 being the most severe (indicating total disability).
Change from baseline in UPDRS combined scores (Parts I, II, III and IV) to Visit 6 (Day 28) and Visit 7 (Day 42) respectively would be summarized using descriptive statistics. […] The same analysis would be done for UPDRS Part III only.

[9] = change from baseline at day 28 (end of up-titration period), Per Protocol Set, n = 15
[10] = change from baseline at day 42 (end of stable dosing period), Per Protocol Set, n = 15
[11] = Baseline, mean (SD), per-protocol set n = 15
[12] = Day 28, mean (SD), per-protocol set n = 15
[13] = Day 42, mean (SD), per-protocol set n = 15
[14] = Patient A, amantadine treatment 1 year
[15] = Patient B, amantadine treatment 2 years
[16] = Patient C, amantadine treatment 7 years
[17] = Patient D, amantadine treatment 11 years
[18] = Patient E, amantadine treatment 6 years
[19] = Visit 2 Baseline, Per protocol analysis set, n 15
[20] = Visit 6 Clinic Efficacy Visit (Day 28), Per protocol analysis set, n 15
[21] = Visit 6 Clinic Efficacy Visit, Full analysis set, n=15
[22] = Visit 7 Clinic Efficacy Visit (Day 42), Per protocol analysis set, n 15
[23] = Visit 7 Clinic Efficacy Visit, Full analysis set, n=15
[24] = Visit 9 Follow-up Clinic Visit, Full analysis set, n=15
[25] = Visit 9 Follow-up Clinic Visit, Per protocol analysis set, n 15

Structure (SMILES): Cc1ccc(CNCC2(F)CCN(C(=O)c3ccc(F)c(Cl)c3)CC2)nc1 [NLX-112]
- CGI-C, proportion of patients improved (minimally, much or very much improved) ([1]; day 28): 33%
- CGI-C, proportion of patients improved (minimally, much or very much improved) ([1]; day 42): 53%
- Quality of life (PDQ39 score), effect ([2]; Days 28 or 42): no consistent statistically significant effect
- PDQ39, Δ D28, mean (S.D.) [2, 9]: −1.5 (8.0)
- PDQ39, Δ D42, mean (S.D.) [2, 10]: −0.6 (6.5)
- ESS, Baseline, mean (S.D.) ([3]; Baseline, Per Protocol Set, n = 15): 8.3 (5.2)
- Sleepiness (ESS), effect ([3]; Days 28 or 42): no consistent statistically significant effect
- ESS, Δ D28, mean (S.D.) [3, 9]: −1.1 (3.3)
- ESS, Δ D42, mean (S.D.) [3, 10]: −0.9 (3.4)
- Befiradol Cmax in female subjects, higher than males by [4]: 20%-40%
- 5-HT1A receptor agonist profile [5]: exceptional selectivity for 5-HT1A receptors and full agonist properties
- 5-HT1A receptor agonist profile ([5]; listed as Befiradol): selective and potent
- Cellular signaling (biased agonist profile) ([5]; via G-proteins): preferentially activates specific cellular signaling cascades
- Disability scores [6]: reduces disability scores
- Activity in models of pain, forced swim test and urinary function in a spinal cord injury model [7]: pronounced activity
- UPDRS Part 1 [8, 11]: 1.0 (1.0)
- UPDRS Part 4 [8, 11]: 8.0 (2.0)
- UPDRS Part 3, change from baseline [8, 12]: −3.7 points and −3.7 (4.7)**# points
- UPDRS Total (Parts 1 to 4), change from baseline [8, 12]: −6.5 points and −6.5 (7.6)*** points
- UPDRS Part 3, change from baseline [8, 13]: −3.7 points and −3.7 (4.6)** points
- UPDRS Total (Parts 1 to 4), change from baseline [8, 13]: −5.7 points and −5.7 (6.0)** points
- UPDRS Part 3, Baseline [8, 14]: 8
- UPDRS Part 3, Δ [8, 14]: −4
- UPDRS Total, Baseline [8, 14]: 22
- UPDRS Total, Δ [8, 14]: −5
- UPDRS Part 3, Baseline [8, 15]: 22
- UPDRS Part 3, Δ [8, 15]: −9
- UPDRS Total, Baseline [8, 15]: 44
- UPDRS Total, Δ [8, 15]: −15
- UPDRS Part 3, Baseline [8, 16]: 28
- UPDRS Part 3, Δ [8, 16]: −13
- UPDRS Total, Baseline [8, 16]: 51
- UPDRS Total, Δ [8, 16]: −11
- UPDRS Part 3, Baseline [8, 17]: 11
- UPDRS Part 3, Δ [8, 17]: +3
- UPDRS Total, Baseline [8, 17]: 26
- UPDRS Total, Δ [8, 17]: −5
- UPDRS Part 3, Baseline [8, 18]: 15
- UPDRS Part 3, Δ [8, 18]: +2
- UPDRS Total, Baseline [8, 18]: 30
- UPDRS Total, Δ [8, 18]: +3
- UPDRS Part 3 Motor Total, collected value, Median (Min, Max) ([8]; Visit 2 Baseline, Full analysis set, n=18): 16.0 (3, 39)
- UPDRS Part 3 Motor Total, collected value, Median (Min, Max) [8, 19]: 17.0 (3, 39)
- UPDRS Total Score, Collected value, Mean (SD) [8, 19]: 37.0 (13.3)
- UPDRS Total Score, Collected value, Median (Min, Max) [8, 19]: 36.0 (17, 66)
- UPDRS Part 3 Motor Total, absolute change from baseline, Mean (SD) [8, 20]: −3.7 (4.7)
- UPDRS Part 3 Motor Total, absolute change from baseline, Median (Min, Max) [8, 20]: −4.0 (−12, 5)
- UPDRS Part 3 Motor Total, collected value, Median (Min, Max) [8, 20]: 14.0 (2, 30)
- UPDRS Total Score, Absolute change from baseline, Mean (SD) [8, 20]: −6.5 (7.6)
- UPDRS Total Score, Absolute change from baseline, Median (Min, Max) [8, 20]: −5.0 (−23, 6)
- UPDRS Total Score, Collected value, Median (Min, Max) [8, 20]: 29.0 (13, 54)
- UPDRS Part 3 Motor Total, absolute change from baseline, Mean (SD) [8, 21]: −3.7 (4.7)
- UPDRS Part 3 Motor Total, absolute change from baseline, Median (Min, Max) [8, 21]: −4.0 (−12, 5)
- UPDRS Part 3 Motor Total, collected value, Median (Min, Max) [8, 21]: 14.0 (2, 30)
- UPDRS Total Score (all Parts), absolute change from baseline, Mean (SD) [8, 21]: −6.5 (7.6)
- UPDRS Total Score (all Parts), absolute change from baseline, Median (Min, Max) [8, 21]: −5.0 (−23, 6)
- UPDRS Total Score (all Parts), collected value, Median (Min, Max) [8, 21]: 29.0 (13, 54)
- UPDRS Part 3 Motor Total, absolute change from baseline, Mean (SD) [8, 22]: −3.7 (4.6)
- UPDRS Part 3 Motor Total, absolute change from baseline, Median (Min, Max) [8, 22]: −4.0 (−13, 3)
- UPDRS Part 3 Motor Total, collected value, Median (Min, Max) [8, 22]: 14.0 (1, 35)
- UPDRS Total Score, Absolute change from baseline, Mean (SD) [8, 22]: −5.7 (6.0)
- UPDRS Total Score, Absolute change from baseline, Median (Min, Max) [8, 22]: −5.0 (−15, 4)
- UPDRS Total Score, Collected value, Median (Min, Max) [8, 22]: 30.0 (15, 63)
- UPDRS Part 3 Motor Total, absolute change from baseline, Mean (SD) [8, 23]: −3.7 (4.6)
- UPDRS Part 3 Motor Total, absolute change from baseline, Median (Min, Max) [8, 23]: −4.0 (−13, 3)
- UPDRS Part 3 Motor Total, collected value, Median (Min, Max) [8, 23]: 14.0 (1, 35)
- UPDRS Total Score (all Parts), absolute change from baseline, Mean (SD) [8, 23]: −5.7 (6.0)
- UPDRS Total Score (all Parts), absolute change from baseline, Median (Min, Max) [8, 23]: −5.0 (−15, 4)
- UPDRS Total Score (all Parts), collected value, Median (Min, Max) [8, 23]: 30.0 (15, 63)
- UPDRS Part 3 Motor Total, absolute change from baseline, Mean (SD) [8, 24]: −2.7 (5.5)
- UPDRS Part 3 Motor Total, absolute change from baseline, Median (Min, Max) [8, 24]: −2.0 (−15, 4)
- UPDRS Part 3 Motor Total, collected value, Median (Min, Max) [8, 24]: 13.0 (2, 32)
- UPDRS Total Score (all Parts), absolute change from baseline, Mean (SD) [8, 24]: −4.4 (9.0)
- UPDRS Total Score (all Parts), absolute change from baseline, Median (Min, Max) [8, 24]: −3.0 (−20, 7)
- UPDRS Total Score (all Parts), collected value, Median (Min, Max) [8, 24]: 31.0 (15, 56)
- UPDRS Part 3 Motor Total, absolute change from baseline, Mean (SD) [8, 25]: −2.7 (5.5)
- UPDRS Part 3 Motor Total, absolute change from baseline, Median (Min, Max) [8, 25]: −2.0 (−15, 4)
- UPDRS Part 3 Motor Total, collected value, Median (Min, Max) [8, 25]: 13.0 (2, 32)
- UPDRS Total Score, Absolute change from baseline, Mean (SD) [8, 25]: −4.4 (9.0)
- UPDRS Total Score, Absolute change from baseline, Median (Min, Max) [8, 25]: −3.0 (−20, 7)
- UPDRS Total Score, Collected value, Median (Min, Max) [8, 25]: 31.0 (15, 56)
- Reduction in UPDRS Part 3 scores, more than placebo ([8]; day 42): 3.9 points
- Amantadine co-treated NLX-112 patients with decreases in UPDRS total score and UPDRS Part 3 ([8]; five patients also receiving amantadine): three
- Effect on the beneficial anti-parkinsonian effects of L-DOPA ([8]; in vivo): did not worsen, and actually enhanced, the beneficial effects of L-DOPA
- Amantadine co-treated NLX-112 patients with numerical reductions in PD symptoms (UPDRS) ([8]; patients on NLX-112 and amantadine): 4 of the 5
